Reference: ChEMBL document CHEMBL1795274, “Synthesis and antiviral activity of cyclopropyl-spirocarbocyclic adenosine, (4R,5S,6R,7R)-4-(6-amino-9H-purin-9-yl)-7-(hydroxymethyl)spiro[2.4]heptane-5,6-diol against hepatitis C virus” (Bioorg Med Chem Lett, 2011)
The source made the active and inactive calls. The calls are words filed in the database; no cut-off is given here.

Tests used:
[1] = test system: Hepatitis C virus; test: Antiviral activity against HCV1a infected in human HuH7 cells expressing E2 glycoprotein assessed as inhibition of viral RNA replication after 5 days; type: functional, organism-based, Hepacivirus hominis; details: subtype 1a, Huh-7, 120 h
[2] = test system: Hepatitis C virus; test: Antiviral activity against HCV1b infected in human Huh7 cells expressing E2 glycoprotein assessed as inhibition of viral RNA replication after 5 days; type: functional, organism-based, Hepacivirus hominis; details: genotype 1b, Huh-7, 120 h
[3] = Cytotoxicity against human HuH7 cells expressing E2 glycoprotein assessed as reduction of rRNA level after 5 days; type: cell-based, Huh-7
[4] = Selectivity index, ratio of CC50 for human HuH7 cells to EC50 for HCV 1a; parameters: species or system Huh-7
[5] = test system: Vaccinia virus; test: Antiviral activity against Vaccinia virus infected in human HuH7 cells assessed as reduction of virus-induced cytopathic-effect; type: functional, organism-based; details: Orthopoxvirus vaccinia, Huh-7
[6] = test system: Measles morbillivirus; test: Antiviral activity against Measles virus infected in human HuH7 cells assessed as reduction of viral level by neutral red assay; type: functional, organism-based; details: Huh-7
[7] = test system: unidentified adenovirus; test: Antiviral activity against Adenovirus infected in human HuH7 cells assessed as reduction of viral level by neutral red assay; type: functional, organism-based; details: Huh-7
[8] = test system: unidentified adenovirus; test: Antiviral activity against Adenovirus infected in human HuH7 cells assessed as reduction of viral level by visual assay; type: functional, organism-based; details: Huh-7
[9] = Selectivity index, ratio of CC50 for human HuH7 cells to EC50 for Vaccinia virus; type: toxicity, cell-based, Huh-7; details: read-out: Ratio CC50/EC50
[10] = Selectivity index, ratio of CC50 for human HuH7 cells to EC50 for Measles virus by neutral red assay; type: toxicity, cell-based, Huh-7; details: read-out: Ratio CC50/EC50
[11] = Selectivity index, ratio of CC50 for human HuH7 cells to EC50 for Measles virus by visual assay; type: toxicity, cell-based, Huh-7; details: read-out: Ratio CC50/EC50
[12] = Selectivity index, ratio of CC50 for human HuH7 cells to EC50 for Adenovirus by neutral red assay; type: toxicity, cell-based, Huh-7; details: read-out: Ratio CC50/EC50
[13] = Selectivity index, ratio of CC50 for human HuH7 cells to EC50 for Adenovirus by visual assay; type: toxicity, cell-based, Huh-7; details: read-out: Ratio CC50/EC50
[14] = Cytotoxicity against human HuH7 cells; type: cell-based, Huh-7
[15] = test system: Cowpox virus; test: Antiviral activity against Cowpox virus; type: functional, organism-based
[16] = test system: Hepatitis B virus; test: Antiviral activity against Hepatitis B virus; type: functional, organism-based
[17] = test system: Human alphaherpesvirus 1; test: Antiviral activity against HSV1; type: functional, organism-based
[18] = test system: Human alphaherpesvirus 2; test: Antiviral activity against HSV2; type: functional, organism-based
[19] = test system: Human alphaherpesvirus 3; test: Antiviral activity against Varicella zoster virus; type: functional, organism-based
[20] = test system: SARS-CoV; test: Antiviral activity against SARS coronavirus; type: functional, organism-based; details: Severe acute respiratory syndrome-related coronavirus
[21] = test system: Influenza A virus; test: Antiviral activity against Influenza A virus H1N1; type: functional, organism-based
[22] = test system: Influenza A virus; test: Antiviral activity against Influenza A virus H3N2; type: functional, organism-based
[23] = test system: Influenza A virus; test: Antiviral activity against Influenza A virus H5N1; type: functional, organism-based
[24] = test system: Venezuelan equine encephalitis virus; test: Antiviral activity against Venezuelan equine encephalitis virus; type: functional, organism-based
[25] = test system: West Nile virus; test: Antiviral activity against West Nile virus; type: functional, organism-based
[26] = test system: Enterovirus; test: Antiviral activity against Rhinovirus; type: functional, organism-based
[27] = test system: Yellow fever virus; test: Antiviral activity against Yellow fever virus; type: functional, organism-based
[28] = test system: Human respirovirus 3; test: Antiviral activity against Human parainfluenza virus 3; type: functional, organism-based
[29] = Selectivity index, ratio of CC50 for human HuH7 cells to EC50 for HCV 1b; parameters: species or system Huh-7
[30] = test system: Measles morbillivirus; test: Antiviral activity against Measles virus infected in human HuH7 cells assessed as reduction of viral level by visual assay; type: functional, organism-based; details: Huh-7

For `Nc1ncnc2c1ncn2[C@H]1[C@H](O)[C@H](O)[C@@H](CO)C12CC2`, the EC50 [1] was 273 nM, the EC90 [1] was 3000 nM and the EC50 [2] was 368 nM. The EC90 [2] was 1200 nM, the CC50 at 120 h [3] was > 100000 nM and the “Ratio CC50/EC50” value [4] was >366. For the same molecule, the EC50 [5] was 42700 nM, the EC50 [6] was 9000 nM and the EC50 [7] was 3000 nM. For the same molecule, the EC50 [8] was 3000 nM, the selectivity ratio [9] was > 7.1 and the selectivity ratio [10] was 5. It also gave a selectivity ratio [11] of 2, a selectivity ratio [12] of 4 and a selectivity ratio [13] of 3. The CC50 [14] was > 10000 nM, the Activity [15] was “inactive” and the Activity [16] was “inactive”. For the same molecule, the Activity [17] was “inactive”, the Activity [18] was “inactive” and the Activity [19] was “inactive”. The Activity [20] was “inactive”, the Activity [21] was “inactive” and the Activity [22] was “inactive”. For the same molecule, the Activity [23] was “inactive”, the Activity [24] was “inactive” and the Activity [25] was “inactive”. For the same molecule, the Activity [26] was “inactive”, the Activity [27] was “inactive” and the Activity [28] was “inactive”. The “Ratio CC50/EC50” value [29] was >272 and the EC50 [30] was 7000 nM.
For `C[C@@]1(O)[C@H](O)[C@@H](CO)O[C@H]1n1ccc(N)nc1=O`, the EC50 [1] was 1700 nM, the EC90 [1] was 8200 nM and the CC50 at 120 h [3] was > 300000 nM. The “Ratio CC50/EC50” value [4] was >272.
